We go through two compounds from publication PMC10113987, “A tool for nuclear imaging of the SARS-CoV-2 entry receptor: molecular model and preclinical development of ACE2-selective radiopeptides” (EJNMMI Research, 2023).

Data set [1] concerns HEK-ACE2/HEK-ACE-xenografted mice. Briefly: SPECT/CT imaging and quantification of retained activity in HEK-ACE2/HEK-ACE xenografted mice. The format is in vivo, mouse. As to conditions: for Activity retained in the kidneys relative to the 1 h p.i.-timepoint: SPECT/CT quantification, non-decay-corrected. The method, then:
(§1) All applicable international, national, and/or institutional guidelines for the care and use of animals were followed. In particular, all animal experiments were carried out according to the guidelines of the Swiss Regulations for Animal Welfare. Preclinical studies have been ethically approved by the Cantonal Committee of Animal Experimentation and permitted by the responsible cantonal authorities (License N° 75743). Five-week-old female CD1/nude mice and female immunocompetent FVB mice were obtained from Charles River Laboratories (Sulzfeld, Germany) and fed with standard rodent chow ad libitum. CD1/nude were subcutaneously inoculated with HEK-ACE2 cells (6–8 × 10^6 cells in 100 µL PBS) on the right shoulder and approximately one week later with HEK-ACE (4 × 10^6 cells in 100 µL PBS) on the left shoulder. Imaging and biodistribution studies were performed 2–4 weeks later when the xenografts reached a size of 100–300 mm^3.
SPECT/CT imaging was performed using a four-head, multiplexing, multipinhole small-animal SPECT camera (NanoSPECT/CT™, Mediso Medical Imaging Systems, Budapest, Hungary). Each head was outfitted with a tungsten-based aperture of nine 1.4 mm-diameter pinholes and a thickness of 10 mm. CT scans of 7.5 min duration were followed by SPECT scans of ~ 50 min performed 1 h, 3 h and 24 h after injection of the respective radiopeptide (10 MBq, 0.5 nmol, 100 μL), diluted in NaCl 0.9% containing 0.05% BSA. During the scan, mice were anesthetized with a mixture of isoflurane and oxygen. The images were acquired using Nucline software (version 1.02, Mediso Ltd., Budapest, Hungary). The real-time CT reconstruction used a cone-beam-filtered backprojection. The reconstruction of SPECT data was performed with the HiSPECT software (version 1.4.3049, Scivis GmbH, Göttingen, Germany) using γ-energies of 93.20 keV (± 10%), 184.60 keV (± 10%) and 300.00 keV (± 10%) for gallium-67. All images were prepared using the VivoQuant post-processing software (version 3.0, inviCRO Imaging Services and Software, Boston, US). A Gauss post-reconstruction filter (full width at half maximum, 1 mm) was applied, and the scale of activity for gallium-67 was set as indicated on the SPECT/CT images. In order to estimate the wash-out of the DX600-based radiopeptides from the HEK-ACE2 xenografts and kidneys over time, the absolute amount of activity was determined in these tissues using the VivoQuant quantification tool. The accumulated activity (non-decay-corrected value in MBq) in the xenografts and kidneys, respectively, obtained at the 1 h p.i. timepoint was set as 100%. The percentage of activity retained in these tissues was determined at 3 h and 24 h p.i. based on the absolute activity determined at these timepoints.

Data set [2] has as its system FVB mice. Briefly: In vivo stability in immunocompetent FVB mice (TLC of blood plasma, urine, kidneys). Also noted: species or system mouse. As to conditions: 1 h p.i., fraction of accumulated activity. The method, then: In order to investigate the stability of the radiopeptides, the ^67Ga-labeled DX600 peptides (20 MBq/nmol) were tested in immunocompetent FVB mice (10 MBq in 100 μL per mouse). Before sacrificing, blood was collected from each mouse 1 h after injection of the radiopeptides. After centrifugation, the blood plasma was analyzed using reversed phase TLC with citrate buffer (0.1 M, pH 5.5) as a mobile phase. The kidneys were collected and processed to investigate the presence of intact radiopeptides and potential metabolites using the same TLC system. The analysis of the chromatograms was performed as described for the in vitro plasma stability (Additional file 1).
Methods: Immunocompetent FVB mice were injected with the DX600-based radiopeptides (n=2). One hour later, urine was collected and blood was sampled from the retrobulbar vein followed by centrifugation (10 min, 200 rcf). A drop of urine and blood plasma was analyzed using the TLC method described for in vitro stability experiments above (reversed phase as stationary phase and citrate buffer pH 5.5 as mobile phase). The data were also confirmed using normal phase TLC. Kidneys of mice were collected, cut into small pieces, homogenized in 200 μL buffer solution (ice-cold methanol containing 0.025% NH4OH) and centrifuged (5 min, 2300 rcf, 4° C) as described by Boss et al.. An aliquot of the supernatant of each sample was developed using the same TLC method as for urine and blood plasma samples. The TLC plates were exposed to a phosphor screen which was afterwards read using a storage phosphor system (Cyclone Plus, PerkinElmer). The quantification of the signals was carried out using the OptiQuant software (version 5.0, Bright Instrument Co Ltd., PerkinElmer^TM). The obtained chromatograms were analyzed by determination of the peak area of the radiolabeled peptide, the released gallium-67 as well as degradation products of unknown structure. The quantity of the intact product was expressed as percentage of the sum of integrated peak areas of the entire chromatogram.

The subject of data set [3] is HEK-ACE2/HEK-ACE-xenografted mice. Nature of the data set: Biodistribution in HEK-ACE2/HEK-ACE xenografted mice. Type of data set: in vivo, mouse. As to conditions: for Biodistribution: ACE2 xenograft (HEK-ACE2): 3 h after i.v. injection, decay-corrected, n = 3. The procedure:
as §1
(§2) Biodistribution studies in xenograft-bearing mice were performed 2–4 weeks after cell inoculation. Mice were intravenously injected with [^67Ga]Ga-DOTA-DX600, [^67Ga]Ga-NODAGA-DX600, [^67Ga]Ga-HBED-CC-DX600 or [^67Ga]Ga-DOTA-BPP9a (3 MBq, 0.5 nmol, 100 µL) diluted in NaCl 0.9% containing 0.05% BSA. The mice were sacrificed 3 h after administration of the radiopeptides. Selected tissues and organs were collected, weighed and counted using a γ-counter. The results were listed as a percentage of the injected activity per gram of tissue mass (% IA/g), using counts of a defined volume of the original injection solution measured simultaneously, resulting in decay-corrected values. Statistical analysis was performed by applying a one‐way ANOVA test with a Tukey’s multiple comparisons post‐test (GraphPad Prism software, version 8.3.1).

Experiment in data set [4]: as above
Type of data set: in vivo, mouse. As to conditions: female, CD1/nude, mouse, iv, 0.5 nmol, total radioactivity, 3 h after i.v. injection, decay-corrected, n = 3. The procedure: as §1, §2

[5] abbreviates: blood, read-out: Biodistribution: blood.
Setting [6] is: bone, read-out: Biodistribution: bone.
[7] abbreviates: heart, read-out: Biodistribution: heart.
The mark [8] stands for this setting: intestines, read-out: Biodistribution: intestines.
Setting [9] is: kidneys, read-out: Biodistribution: kidneys (renal retention).
Where [10] appears, read: liver, read-out: Biodistribution: liver.
Setting [11] is: lung, read-out: Biodistribution: lung.
[12] abbreviates: muscle, read-out: Biodistribution: muscle.
[13] abbreviates: salivary glands, read-out: Biodistribution: salivary glands.
The mark [14] stands for this setting: spleen, read-out: Biodistribution: spleen.
[15] abbreviates: stomach, read-out: Biodistribution: stomach.

Like-named read-outs stand apart in the source and are kept apart here. Positions of bridges follow the written chain, without caps; N, C: chain ends. Residues, ends and D or L forms follow the SMILES beside them. *: point of attachment. DOTA = O=C(O)CN1CCN(CC(=O)O)CCN(CC(=O)*)CCN(CC(=O)O)CC1; NODAGA = O=C(O)CN1CCN(CC(=O)O)CCN(C(CCC(=O)*)C(=O)O)CC1; Ahx = NCCCCCC(=O)O

For `CC(=O)N[C@@H](CCCCNC(=O)CCC(C(=O)O)N1CCN(CC(=O)O)CCN(CC(=O)O)CC1)C(=O)NCC(=O)N[C@@H](CC(=O)O)C(=O)N[C@@H](Cc1ccc(O)cc1)C(=O)N[C@@H](CO)C(=O)N[C@@H](Cc1c[nH]cn1)C(=O)N[C@H]1CSSC[C@@H](C(=O)N[C@H](C(=O)N[C@@H](Cc2ccc(O)cc2)C(=O)N2CCC[C@H]2C(=O)N[C@@H](CC(=O)O)C(=O)N2CCC[C@H]2C(=O)N[C@@H](CCC(=O)O)C(=O)NCC(=O)NCC(=O)NCC(N)=O)[C@@H](C)O)NC(=O)[C@H](CCCCN)NC(=O)[C@H](Cc2c[nH]c3ccccc23)NC(=O)[C@H](Cc2c[nH]c3ccccc23)NC(=O)[C@@H]2CCCN2C(=O)[C@H](Cc2ccc(O)cc2)NC(=O)[C@H](Cc2ccc(O)cc2)NC(=O)[C@H](CCCNC(=N)N)NC(=O)[C@H](CC(C)C)NC(=O)[C@@H]2CCCN2C(=O)[C@H](CO)NC1=O` (some centres unmarked) [[^67Ga]Ga-NODAGA-DX600, metal not drawn] (Ac-K(NODAGA)GDYSHCSPLRYYPWWKCTYPDPEGGG-NH2; disulfide 7-18), the “Activity retained in the kidneys relative to the 1 h p.i.-timepoint” value in data set [1] (3 h p.i.) is recorded as ~ 85%; in data set [1] (24 h p.i.) it was 35–45%. Besides, the “Radiometabolites in kidney homogenates” value in data set [2] is listed as ~ 90%. Besides, the HEK-ACE2 xenograft-to-kidney ratio in data set [3] (3 h after injection) is recorded as 0.67 ± 0.16. The tissue uptake at 3 h in data set [4] (HEK-ACE2 xenograft, read-out: Biodistribution: ACE2 xenograft (HEK-ACE2)) was 15.5 ± 2.2 %ID/g; in data set [4] (setting [5]) it was 0.02 ± 0.01 %ID/g; in data set [4] (setting [6]), 0.04 ± 0.01 %ID/g; in data set [4] (setting [7]) it was 0.04 ± 0.01 %ID/g; in data set [4] (setting [8]), 0.13 ± 0.07 %ID/g; in data set [4] (setting [9]), around 24 %ID/g. Further, the tissue uptake at 3 h in data set [4] (setting [10]) was 0.25 ± 0.04 %ID/g; in data set [4] (setting [11]) it was 0.08 ± 0.01 %ID/g; in data set [4] (setting [12]), 0.02 ± 0.01 %ID/g; in data set [4] (setting [13]) it was 0.05 ± 0.01 %ID/g; in data set [4] (setting [14]), 0.08 ± 0.01 %ID/g; in data set [4] (setting [15]), 0.06 ± 0.03 %ID/g.

For the compound `CC[C@H](C)[C@H](NC(=O)[C@H](CCC(N)=O)NC(=O)[C@@H]1CCCN1C(=O)[C@H](CCCNC(=N)N)NC(=O)[C@@H]1CCCN1C(=O)[C@H](Cc1c[nH]c2ccccc12)NC(=O)[C@H](CCC(=O)O)NC(=O)CCCCCNC(=O)CCCCCNC(=O)CN1CCN(CC(=O)O)CCN(CC(=O)O)CCN(CC(=O)O)CC1)C(=O)N1CCC[C@H]1C(=O)N1CCC[C@H]1C(=O)O` [[^67Ga]Ga-DOTA-BPP9a, metal not drawn] ({DOTA-Ahx-Ahx}-EWPRPQIPP-OH), the “Uptake in HEK-ACE2 xenografts on SPECT/CT images” value in data set [1] (1 h and 3 h after injection) was “no uptake”. The “Uptake in HEK-ACE xenografts on SPECT/CT images” value in data set [1] (1 h and 3 h after injection) is “accumulation”. For the same compound, the “Biodistribution: ACE2 xenograft (HEK-ACE2)” value in data set [3] was below 0.5 % IA/g; in data set [3] (listed as [^67Ga]Ga-DOTA- BPP9a), 0.19 ± 0.19 % IA/g. Moreover, the tissue uptake at 3 h in data set [4] (HEK-ACE xenograft, read-out: Biodistribution: ACE xenograft (HEK-ACE)) was 3.17 ± 0.29 %ID/g; in data set [4] (setting [5]), 0.05 ± 0.01 %ID/g; in data set [4] (setting [6]), 0.04 ± 0.01 %ID/g; in data set [4] (setting [7]), 0.03 %ID/g; in data set [4] (setting [8]), 0.06 ± 0.02 %ID/g; in data set [4] (setting [9]) it was 3.22 ± 0.8 %ID/g. Besides, the tissue uptake at 3 h was determined as 0.09 ± 0.01 %ID/g in data set [4] (setting [10]); 0.13 ± 0.03 %ID/g in data set [4] (setting [11]); 0.02 ± 0.01 %ID/g in data set [4] (setting [12]); 0.04 ± 0.01 %ID/g in data set [4] (setting [13]); 0.08 ± 0.04 %ID/g in data set [4] (setting [14]); 0.06 ± 0.05 %ID/g in data set [4] (setting [15]).
